Values quoted from earlier work, collected in paper PMC3346673 (Toxicological and environmental chemistry, 2012).

Experiments:
[1] = temporarily ref Risher & Amier, 2005; cited from earlier work
[2] = administered by sc injection; cited from earlier work

Row | Structure (SMILES) | reduction of blood mercury levels [1] | predicted LD50 [2]
1 | O=C(O)C(S)C(S)C(=O)O (stereo not drawn) [DMSA, dimercaptosuccinic acid] | about 20% | –
2 | [Cl][Hg][Cl] [HgCl2, mercury chloride] | – | 14 mg HgCl2 kg^−1
3 | O=S(=O)(O)CC(S)CS (stereo not drawn) [DMPS, dimercaptopropanesulfonate] | about 20% | –
